This is an account of results in paper PMC7547863 (Biochemistry, 2020).

No end group written: not given here.

For data set [1], the system named is C. albicans ATCC90028. Put plainly: CO-ADD antifungal screening, MIC. The class given is cell-based, Candida albicans. The settings on record: yeast nitrogen base, 2.5 × 10^3 CFU/mL, 35 °C 24 h, OD530, n=2.
Data set [2] concerns human dermal microvascular endothelial cells (HDMEC). Put plainly: HDMEC cytotoxicity assay. The class given is cell-based. As to conditions: concentration at 50% cytotoxicity.
Data set [3] relates to human embryonic kidney cells (HEK 293). Put plainly: HEK 293 cytotoxicity assay. The class given is cell-based. The settings on record: concentration at 50% cytotoxicity, CO-ADD.
In data set [4] the test system is E. coli. As to conditions: ref [58]; cited from earlier work.
In data set [5] the test system is S. aureus. As to conditions: ref [58]; cited from earlier work.

For “GLFDIVKKVVGALG-NH2 [Au2.2d2, reference compound]”, the “MIC C. albicans ATCC90028*” value in data set [1] is more than 23 µM. Besides, the “HDMEC (CC50)” value in data set [2] came out at 64 µM.

Consider GLFDIVKKVVGALK-NH2 [compound 9], for which the “MIC C. albicans ATCC90028*” value in data set [1] was more than 22 µM. Further, in data set [2], the “HDMEC (CC50)” value turned out to be 103 µM.

As for GLFDIVKKVVGLLK-NH2 [compound 8], the “MIC C. albicans ATCC90028*” value in data set [1] was more than 21 µM. Moreover, in data set [2], the “HDMEC (CC50)” value is 28 µM.

Turning to GLFDIVKKVVKLLK-NH2 [compound 7], the “MIC C. albicans ATCC90028*” value in data set [1] was more than 20 µM. In data set [2], the “HDMEC (CC50)” value was determined as 236 µM.

For GLFKLLKKLLKLLK-NH2 [compound 2], the “MIC C. albicans ATCC90028*” value in data set [1] was more than 20 µM. The “HDMEC (CC50)” value in data set [2] is 2 µM. Further, the “HEK293 (CC50)” value in data set [3] was more than 19 µM.

Regarding KLLKLLKKLLGALG-NH2 [compound 16], in data set [1], the “MIC C. albicans ATCC90028*” value was determined as 11 µM. Moreover, the “HDMEC (CC50)” value in data set [2] stood at 8 µM. Further, the “HEK293 (CC50)” value in data set [3] is 7 µM.

On to KLLKLLKKLLKALG-NH2 [compound 17], for which the “MIC C. albicans ATCC90028*” value in data set [1] was determined as 20 µM. Also, the “HDMEC (CC50)” value in data set [2] was 4 µM. Further, the “HEK293 (CC50)” value in data set [3] was more than 20 µM.

Consider “KLLKLLKKLLKLLK-NH2 [Klk14, reference compound]”, for which, in data set [1], the “MIC C. albicans ATCC90028*” value came to 9 µM. Besides, the “HDMEC (CC50)” value in data set [2] was 3 µM. For the same substance, the “HEK293 (CC50)” value in data set [3] was found to be 10 µM.

As for KLLKLLKKLVGALG-NH2 [compound 15], in data set [1], the “MIC C. albicans ATCC90028*” value amounted to 21 µM. In data set [2], the “HDMEC (CC50)” value turned out to be 25 µM. For the same substance, in data set [3], the “HEK293 (CC50)” value amounted to 12 µM.

Turning to KLLKLVKKVVGALG-NH2 [compound 13], the “MIC C. albicans ATCC90028*” value in data set [1] was more than 22 µM. The “HDMEC (CC50)” value in data set [2] came to 533 µM.

As to WWKRWKKLRRIFLML, in data set [4], the “MIC against E. coli” value was 4 µM. In addition, in data set [5], the “MIC against S. aureus” value was 4 µM.
